Data published in patent US20110086389A1, “Compositions and Methods for Expressing In-Frame Multimeric Proteins” (priority 2008, published 2011).
Read-outs that look alike come from different tables or passages of the source. Where a SMILES comes first, the peptide text is derived from it. Bridges are numbered along the chain shown (N, C = ends). Where no end group is shown, it is not given here.

Tests used:
[1] = target: T1, Kv1.1-1.2-1.1-1.2 (forward diagonal channel) (Rattus norvegicus, UniProt P10499+P63142); assay: Whole-cell voltage-clamp (QPatch) inhibition of K+ current, diagonal channel; type: cell-based; conditions: for IC50: HEK-293 cells
T1 construct: nucleic acids encoding the full-length Kv subunit; inter-subunit linker to next subunit (region from Xenopus beta-globin UTRs); expressed in transfected cells; host or cells: HEK-293 (pIRES2-EGFP vector)
T1 sequence (P10499 whole entry): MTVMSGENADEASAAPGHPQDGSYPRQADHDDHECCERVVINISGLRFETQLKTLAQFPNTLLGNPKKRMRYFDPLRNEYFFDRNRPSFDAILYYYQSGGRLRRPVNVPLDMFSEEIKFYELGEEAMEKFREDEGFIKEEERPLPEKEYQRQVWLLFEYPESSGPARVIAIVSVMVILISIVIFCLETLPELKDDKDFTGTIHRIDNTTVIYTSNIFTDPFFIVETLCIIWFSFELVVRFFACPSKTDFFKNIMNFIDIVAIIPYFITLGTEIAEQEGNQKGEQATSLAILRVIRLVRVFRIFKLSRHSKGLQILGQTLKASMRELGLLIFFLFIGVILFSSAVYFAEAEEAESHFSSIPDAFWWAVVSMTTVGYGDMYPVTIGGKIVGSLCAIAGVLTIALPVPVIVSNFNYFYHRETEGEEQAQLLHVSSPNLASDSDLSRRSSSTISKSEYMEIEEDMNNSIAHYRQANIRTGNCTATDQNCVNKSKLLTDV
T1 sequence (P63142 whole entry): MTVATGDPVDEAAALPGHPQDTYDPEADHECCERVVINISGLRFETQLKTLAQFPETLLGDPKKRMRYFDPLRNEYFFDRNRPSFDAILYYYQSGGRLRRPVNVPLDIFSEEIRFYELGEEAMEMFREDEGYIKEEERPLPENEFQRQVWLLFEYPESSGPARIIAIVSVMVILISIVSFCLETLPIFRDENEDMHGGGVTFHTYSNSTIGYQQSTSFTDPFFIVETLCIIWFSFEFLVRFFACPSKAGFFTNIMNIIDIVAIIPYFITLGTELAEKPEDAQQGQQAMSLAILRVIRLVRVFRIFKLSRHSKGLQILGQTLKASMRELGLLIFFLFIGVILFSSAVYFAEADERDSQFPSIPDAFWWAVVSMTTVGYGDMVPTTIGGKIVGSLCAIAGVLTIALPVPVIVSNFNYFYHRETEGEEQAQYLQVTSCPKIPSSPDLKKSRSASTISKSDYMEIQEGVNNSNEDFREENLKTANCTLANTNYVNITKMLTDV
T1 sequence (P10499 whole entry): as the sequence (P10499 whole entry) above
T1 sequence (P63142 whole entry): as the sequence (P63142 whole entry) above
Description: (§1) Whole-cell voltage-clamp experiments were performed as outlined in Sokolov, et al., Neuropharmacol. 53:2, 272-282, (2007), whose disclosure is hereby incorporated by reference. The internal solution was (in mM): 90 KCl, 50 KF, 30 KOH, 10 EGTA, 20 HEPES, pH 7.4. The extracellular bath solution contained (in mM) 135 choline chloride, 20 KOH, 1.8 CaCl2, 1 MgCl2, and 40 HEPES, pH 7.4, and 0.01% (w/v) BSA. Solutions were exchanged by continuous flow with a peristaltic pump or a Cellectricon Dynaflow-16 system. Series resistance compensation was applied to minimize the voltage error (<10 mV). Correction was made for a calculated liquid junction potential of +8.4 mV. Holding potential was −100 mV. Leak subtraction was used to isolate K^+ current (IK). Analogue traces were filtered at 5 kHz, and sampled at 50 kHz. Non-linear fitting was carried out with equations described in (Sack et al., Gen. Physiol. 128:1, 119-132, (2006), whose disclosure is hereby incorporated by reference. Data are reported as mean±standard error; n values refer to number of individual cells tested. Statistical significance was evaluated by two-tailed Student's t-test using data obtained from at least five independent experiments performed in parallel.
(§2) In these examples, the functional properties of the Kv1 heteromers Kv1.1-1.1-1.2-1.2, Kv1.1-1.2-1.1-1.2, […] and Kv1.2-1.1-1.2-1.1 were compared by whole-cell, voltage-clamp, conventional recordings from HEK-293 cells transfected separately with each of the 4 constructs.
(§3) In these examples the sensitivities of the potassium channel currents mediated by these tetramers to various blockers were also examined. Inhibition by TEA, or Agitoxinl (AgTX1) and TsTX-Kα were determined.
(§4) Whole-cell voltage-clamp was performed as described in Example 25-27, except where specified. For larger scale recordings, an automated patch-clamp system (QPatch 16, Sophion, Denmark) was used; its disposable Qplates contain 16 individual and parallel patch-clamp positions. Cells were detached from culture plates with 0.05% trypsin/EDTA solution and kept in serum-free medium (CHO-S-SFM II [Invitrogen], 25 mM HEPES, pH 7.4, 0.04 μg/ml soya bean trypsin inhibitor, and 10 μg/ml penicillin-streptomycin) in an on-board stirred reservoir. Prior to testing, the cells were automatically transferred to an integral mini-centrifuge, pelleted, re-suspended in external solution (as detailed above) and washed before being applied to the pipeting wells in the Q plate. Giga-seals were formed upon execution of a combined suction/voltage protocol; gradually increasing suction leads to the whole-cell configuration. […] Whole cell currents were measured at a holding potential of −100 mV, then depolarised to +60 mV for 200 ms or stepped from the holding potential in +10 mV increments. […]

[2] = target: T2, Kv1.2-1.1-1.2-1.1 (reverse diagonal channel) (Rattus norvegicus, UniProt P10499+P63142); assay: Whole-cell voltage-clamp (QPatch) inhibition of K+ current, reverse diagonal channel; type: cell-based; conditions: HEK-293 cells
T2 construct: nucleic acids encoding the full-length Kv subunit; inter-subunit linker to next subunit (region from Xenopus beta-globin UTRs); expressed in transfected cells; host or cells: HEK-293 (pIRES2-EGFP vector)
T2 sequence (P63142 whole entry): as above
T2 sequence (P10499 whole entry): as the sequence (P10499 whole entry) above
T2 sequence (P63142 whole entry): as the sequence (P63142 whole entry) above
T2 sequence (P10499 whole entry): as the sequence (P10499 whole entry) above
Description: as §1, §2, §3
(§5) Whole-cell voltage-clamp was performed as described in Example 25-27, except where specified. […] Whole cell currents were measured at a holding potential of −100 mV, then depolarised to +60 mV for 200 ms or stepped from the holding potential in +10 mV increments. […]

[3] = target: T3, Kv1.1-1.2 dimer-containing channel (Rattus norvegicus, UniProt P10499+P63142); assay: Whole-cell voltage-clamp inhibition of K+ current, dimer-containing channel; type: cell-based; conditions: HEK-293 cells
T3 construct: expressed in transfected cells
T3 sequence (P10499 whole entry): as above
T3 sequence (P63142 whole entry): as the sequence (P63142 whole entry) above
Description: as §1, §2, §3, §5

[4] = target: T4, Kv1.2-1.2-1.1-1.1 (reverse adjacent channel) (Rattus norvegicus, UniProt P10499+P63142); assay: Whole-cell voltage-clamp (QPatch) inhibition of K+ current, reverse adjacent channel; type: cell-based; conditions: HEK-293 cells, holding −100 mV, depolarised to +60 mV
T4 construct: nucleic acids encoding the full-length Kv subunit; inter-subunit linker to next subunit (region from Xenopus beta-globin UTRs); expressed in transfected cells; host or cells: HEK-293 (pIRES2-EGFP vector)
T4 sequence (P63142 whole entry): as above
T4 sequence (P63142 whole entry): as above
T4 sequence (P10499 whole entry): as the sequence (P10499 whole entry) above
T4 sequence (P10499 whole entry): as above
Description: as §1, §2, §3, §5

[5] = target: T5, Kv1.1-1.1-1.2-1.2 (forward adjacent channel) (Rattus norvegicus, UniProt P10499+P63142); assay: Whole-cell voltage-clamp (QPatch) inhibition of K+ current, adjacent channel; type: cell-based; conditions: for IC50: HEK-293 cells, holding −100 mV, depolarised to +60 mV
T5 construct: nucleic acids encoding the full-length Kv subunit; inter-subunit linker to next subunit (region from Xenopus beta-globin UTRs); expressed in transfected cells; host or cells: HEK-293 (pIRES2-EGFP vector)
T5 sequence (P10499 whole entry): as above
T5 sequence (P10499 whole entry): as above
T5 sequence (P63142 whole entry): as the sequence (P63142 whole entry) above
T5 sequence (P63142 whole entry): as above
Description: as §1, §2, §3, §4

[6] = target: T6, Kv1.1-1.1-1.2-1.2 tetramer (Rattus norvegicus, UniProt P10499+P63142); assay: Competition of 125I-αDTX binding to transfected HEK-293 cells; set-up: displacement of 125I-αDTX from the tetramer: dose or concentration left out as unconfirmed; conditions: for displacement of 125I-αDTX from the tetramer: transfected HEK-293 cells, FIG. 4B
T6 construct: nucleic acids encoding the full-length Kv subunit; inter-subunit linker to next subunit (region from Xenopus beta-globin UTRs); expressed in transfected cells; host or cells: HEK-293 (pIRES2-EGFP vector)
T6 sequence (P10499 whole entry): as the sequence (P10499 whole entry) above
T6 sequence (P10499 whole entry): as above
T6 sequence (P63142 whole entry): as the sequence (P63142 whole entry) above
T6 sequence (P63142 whole entry): as above
Description: HEK 293 cells are transiently transfected with a PIRES2-EGFP vector encoding Kv1.1-1.1-1.2-1.2 (also referred to as forward adjacent channel; see below) and the cells incubated to display the potassium channels on the cell membranes.
Cells are harvested in 25 mM Tris HCl, 5 mM KCl pH 7.5 Saturatable binding of ^125I-α-dendrotoxin (DTX), a Kv1-selective toxin, was performed using a filtration assay to measure the amount of assembled channel targeted to the plasmalemma. Transfected cells suspended in binding buffer were incubated for 1 hour with increasing concentrations of labelled DTX; for non-saturable binding experiments, the incubation is performed in the presence of 1 μM unlabeled DTX. Measurements are made in triplicate under established conditions by rapid filtration through GF/F glass microfiber filters presoaked with 0.5% (w/v) polyethyleneimine. The radioactivity associated with the washed filters was quantified by γ-radiation counting.
In FIG. […]

Kv1.4-1.6-1.1-1.2 = target: T7, Kv1.4-1.6-1.1-1.2 (Rattus norvegicus, UniProt P10499+P15385+P17659+P63142); assay: Whole-cell voltage-clamp inhibition of IK, Kv1.4-containing hetero-tetramers; type: cell-based; conditions: Kv1.4-1.6-1.1-1.2 versus Kv1.4-1.6-1.3-1.2; 1, 10, 100 nM; assayed at ≦0 mV, FIG. 10F
T7 construct: nucleic acids encoding the full-length Kv subunit; inter-subunit linker to next subunit (region from Xenopus beta-globin UTRs); expressed in transfected cells; host or cells: HEK-293
T7 sequence (P15385 whole entry): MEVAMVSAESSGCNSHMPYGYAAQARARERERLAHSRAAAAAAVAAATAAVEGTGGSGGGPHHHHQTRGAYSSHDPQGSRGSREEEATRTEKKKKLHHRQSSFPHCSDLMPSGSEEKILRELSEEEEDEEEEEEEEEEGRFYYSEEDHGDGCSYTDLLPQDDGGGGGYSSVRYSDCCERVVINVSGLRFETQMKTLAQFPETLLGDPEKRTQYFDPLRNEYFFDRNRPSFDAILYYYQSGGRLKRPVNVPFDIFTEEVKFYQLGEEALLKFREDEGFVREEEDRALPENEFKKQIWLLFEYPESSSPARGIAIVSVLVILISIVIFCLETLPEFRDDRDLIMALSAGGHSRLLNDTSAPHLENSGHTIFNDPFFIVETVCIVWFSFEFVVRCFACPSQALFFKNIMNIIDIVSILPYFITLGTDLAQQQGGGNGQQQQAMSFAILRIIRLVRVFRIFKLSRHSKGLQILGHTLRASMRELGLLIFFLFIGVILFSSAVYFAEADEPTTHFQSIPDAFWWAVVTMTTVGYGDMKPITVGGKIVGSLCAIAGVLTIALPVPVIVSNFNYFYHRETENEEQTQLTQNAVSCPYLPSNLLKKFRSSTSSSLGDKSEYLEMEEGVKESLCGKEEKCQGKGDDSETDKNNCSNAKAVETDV
T7 sequence (P17659 whole entry): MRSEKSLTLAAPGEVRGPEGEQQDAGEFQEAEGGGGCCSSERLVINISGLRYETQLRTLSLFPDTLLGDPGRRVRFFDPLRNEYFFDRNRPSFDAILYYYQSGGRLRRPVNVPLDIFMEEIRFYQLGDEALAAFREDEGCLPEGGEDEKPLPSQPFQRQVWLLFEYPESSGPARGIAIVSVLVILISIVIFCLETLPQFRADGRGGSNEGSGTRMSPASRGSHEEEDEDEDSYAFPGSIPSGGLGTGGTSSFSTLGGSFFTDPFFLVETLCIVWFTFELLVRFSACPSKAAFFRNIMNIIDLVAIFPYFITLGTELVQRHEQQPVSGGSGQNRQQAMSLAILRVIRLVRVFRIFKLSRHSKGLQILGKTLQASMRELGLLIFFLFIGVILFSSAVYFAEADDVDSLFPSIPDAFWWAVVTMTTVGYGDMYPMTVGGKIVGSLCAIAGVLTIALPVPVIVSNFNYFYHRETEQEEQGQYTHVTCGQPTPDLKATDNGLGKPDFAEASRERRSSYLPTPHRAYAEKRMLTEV
T7 sequence (P10499 whole entry): as the sequence (P10499 whole entry) above
T7 sequence (P63142 whole entry): as the sequence (P63142 whole entry) above
Description: In these examples, the functional properties of the concatenated Kv1 heteromers Kv 1.1-1.1-1.2-1.2, Kv1.4-1.6-1.1-1.2 and Kv1.4-1.6-1.3-1.2 were examined by whole-cell voltage-clamped recordings from the corresponding transfected HEK-293 cells. The activation kinetics of the currents mediated by Kv 1.1-1.1-1.2-1.2 Kv 1.4-1.6-1.1-1.2 and Kv1.4-1.6-1.3-1.2 were determined.
The sensitivities of the potassium channel currents mediated by Kv 1.1-1.1-1.2-1.2 Kv 1.4-1.6-1.1-1.2 and Kv1.4-1.6-1.3-1.2 to various blockers were also examined in these examples.
Whole-cell voltage-clamp experiments were performed as outlined in Sokolov, et al., Neuropharmacol. 53:2, 272-282, (2007), whose disclosure is hereby incorporated by reference. The internal solution was (in mM): 90 KCl, 50 KF, 30 KOH, 10 EGTA, 20 HEPES, pH 7.4. […] Correction was made for a calculated liquid junction potential of +8.4 mV. […] Non-linear fitting was carried out with equations described in (Sack et al., Gen. Physiol. 128:1, 119-132, (2006), whose disclosure is hereby incorporated by reference. Data are reported as mean±standard error; n values refer to number of individual cells tested. Statistical significance was evaluated by two-tailed Student's t-test using data obtained from at least five independent experiments performed in parallel.

[7] = unit printed in cell (row head says nM), read-out: IC50 AgTx1
[8] = holding −100 mV, depolarised to +60 mV, read-out: IC50 TEA
[9] = unit printed in cell (row head says nM), read-out: IC50 TsTxKα

For `CC[C@H](C)[C@@H]1NC(=O)[C@@H]2CSSC[C@H](NC(=O)[C@H](CCCCN)NC(=O)[C@@H](NC(=O)[C@H](CC(N)=O)NC(=O)[C@@H](NC(=O)[C@@H]3CCCN3C(=O)[C@@H](NC(=O)CN)C(C)C)[C@@H](C)CC)C(C)C)C(=O)N[C@@H]([C@@H](C)O)C(=O)NCC(=O)N[C@@H](CO)C(=O)N3CCC[C@H]3C(=O)N[C@@H](CCC(N)=O)C(=O)N[C@H]3CSSC[C@H](NC(=O)[C@H](CCCCN)NC(=O)CNC(=O)[C@H](CC(N)=O)NC1=O)C(=O)N[C@@H](Cc1c[nH]cn1)C(=O)N[C@H](C(=O)N[C@H](C(=O)N1CCC[C@H]1C(=O)N[C@@H](CCCCN)C(=O)O)[C@@H](C)O)CSSC[C@H](NC(=O)[C@@H]1CCCN1C(=O)[C@H](CCCCN)NC(=O)[C@H](CC(C)C)NC3=O)C(=O)N[C@@H](CCCCN)C(=O)N[C@@H](CC(=O)O)C(=O)N[C@@H](C)C(=O)NCC(=O)N[C@@H](CCSC)C(=O)N[C@@H](CCCNC(=N)N)C(=O)N[C@@H](Cc1ccccc1)C(=O)NCC(=O)N[C@@H](CCCCN)C(=O)N2` [AgTx1, Agitoxinl] (H-GVPINVKCTGSPQCLKPCKDAGMRFGKCINGKCHCTPK-OH; disulfide 8-28, 14-33, 18-35; N-terminus and C-terminus assumed), the IC50 [1, 7] was > 1000 nM, the “sensitivity to AgTX1” value ([1]; diagonal oligomers, FIG. 12C) was “virtually insensitive” and the IC50 [2, 7] was ≥ 1000 nM. The IC50 ([3]; read-out: IC50 AgTx1) was 0.039 ± 0.004 µM, the IC50 ([4]; read-out: IC50 AgTx1) was 0.005 ± 0.0005 µM and the IC50 ([5]; read-out: IC50 AgTx1) was 0.005 ± 0.0004 µM.

`CC[N+](CC)(CC)CC` [TEA, tetraethylammonium] showed an IC50 [1, 8] of 760000 ± 100000 nM, an IC50 [2, 8] of 960000 ± 140000 nM and an IC50 ([3]; read-out: IC50 TEA) of 12000 ± 1000 µM. For the same molecule, the IC50 ([4]; read-out: IC50 TEA) was 6700 ± 2000 µM, the IC50 ([5]; read-out: IC50 TEA) was 9700 ± 1000 µM and the “fold lower affinity for TEA than the corresponding diagonals” value ([5]; forward and reverse adjacent channels versus diagonal channels, FIG. 12B) was ~11 fold.

With `CC[C@H](C)[C@@H]1NC(=O)[C@H](C)NC(=O)[C@H](CCC(=O)O)NC(=O)[C@H](CCCCN)NC(=O)[C@@H]2CSSC[C@@H](C(=O)N[C@@H](Cc3ccc(O)cc3)C(=O)N3CCC[C@H]3C(=O)O)NC(=O)[C@H](CCCCN)NC(=O)[C@@H]3CSSC[C@H](NC(=O)[C@H](CCC(=O)O)NC(=O)[C@@H]4CCCN4C(=O)[C@H](CO)NC(=O)CNC(=O)[C@H](CCCNC(=N)N)NC(=O)[C@@H](NC(=O)[C@H](CCCCN)NC(=O)[C@H](C)NC(=O)[C@H](CC(N)=O)NC(=O)[C@@H](NC(=O)[C@H](Cc4ccccc4)NC(=O)[C@@H](N)C(C)C)[C@@H](C)CC)CSSC[C@H](NC(=O)[C@H](CCCCN)NC(=O)CNC(=O)[C@H](C)NC(=O)[C@H](C)NC(=O)[C@H](CCCCN)NC(=O)CNC1=O)C(=O)N[C@@H](CCSC)C(=O)N[C@@H](CC(N)=O)C(=O)NCC(=O)N[C@@H](CCCCN)C(=O)N3)C(=O)N[C@@H](CC(C)C)C(=O)N1CCC[C@H]1C(=O)N[C@@H](CCCCN)C(=O)N2` [TsTxKα, tityustoxin-Kα] (H-VFINAKCRGSPECLPKCKEAIGKAAGKCMNGKCKCYP-OH; disulfide 7-28, 13-33, 17-35; N-terminus and C-terminus assumed) the IC50 [1, 9] was > 1000 nM, the “displacement of 125I-αDTX from the tetramer” value (shortened to “displacement of 125I-αDTX”) [6] was “readily displaced” and the IC50 [2, 9] was > 1000 nM. For the same molecule, the IC50 ([3]; read-out: IC50 TsTxKα) was 0.033 ± 0.003 µM, the IC50 ([4]; read-out: IC50 TsTxKα) was 0.025 ± 0.007 µM and the IC50 ([5]; read-out: IC50 TsTxKα) was 0.026 ± 0.003 µM.

For “DTXk: toxin, Kv1 channel blocker competing with 125I-αDTX (AAKYCKLPLRIGPCKRKIPSFYYKWKAKQCLPFDYSGCGGNANRFKTIEECRRTCVG; ends and bridges not checked; cysteine pairing not given here)”, the “inhibition of IK, sensitivity difference between channels” value (Kv1.4-1.6-1.1-1.2) was “significant sensitivity difference” and the “displacement of 125I-αDTX” value [6] was “readily displaced”.

With “ShK: toxin competing with 125I-αDTX binding; parent of derivative ShK-Dap^22” the “antagonism of 125I-αDTX binding” value ([6]; 2.5 μM 125I-αDTX, transfected HEK cells, FIG. 4C) was “to a greater extent than does the derivative ShK-Dap^22”.

With “α-dendrotoxin (QPRRKLCILHRNPGRCYDKIPAFYYNQKKKQCERFDWSGCGGNSNRFKTIEECRRTCIG) [αDTX]” the “displacement of 125I-αDTX” value [6] was “readily displaced”.
